Data as given in patent US6248901A, “Heterocyclic vinyl ethers” (Hoffman-La Roche Inc., priority 1997, dated 2001).

Target: rat mGluR2 receptor (Rattus norvegicus, UniProt P31421)
Experiment: GTP γ^35 S test for affinity to group II mGluR (antagonism of 1S,3R-ACPD effect, membranes with rat mGluR2)
Type: biochemical
Method: The binding of the compounds of formula I in accordance with the invention to group II metabotropic glutamate receptors was determined in vitro. The preparations were tested in accordance with the test given hereinafter:
The GTP γ^35 S test was used to determine the affinity of a compound to the group II mGluR. Membranes which adhere to the rat mGluR2 receptor were used. These were stimulated with 10 μM 1S,3R-ACPD.
The Ki values of the compounds to be tested are given. The Ki value is defined by the following formula [formula]

Chain of rat mGluR2 receptor (P31421 19-872): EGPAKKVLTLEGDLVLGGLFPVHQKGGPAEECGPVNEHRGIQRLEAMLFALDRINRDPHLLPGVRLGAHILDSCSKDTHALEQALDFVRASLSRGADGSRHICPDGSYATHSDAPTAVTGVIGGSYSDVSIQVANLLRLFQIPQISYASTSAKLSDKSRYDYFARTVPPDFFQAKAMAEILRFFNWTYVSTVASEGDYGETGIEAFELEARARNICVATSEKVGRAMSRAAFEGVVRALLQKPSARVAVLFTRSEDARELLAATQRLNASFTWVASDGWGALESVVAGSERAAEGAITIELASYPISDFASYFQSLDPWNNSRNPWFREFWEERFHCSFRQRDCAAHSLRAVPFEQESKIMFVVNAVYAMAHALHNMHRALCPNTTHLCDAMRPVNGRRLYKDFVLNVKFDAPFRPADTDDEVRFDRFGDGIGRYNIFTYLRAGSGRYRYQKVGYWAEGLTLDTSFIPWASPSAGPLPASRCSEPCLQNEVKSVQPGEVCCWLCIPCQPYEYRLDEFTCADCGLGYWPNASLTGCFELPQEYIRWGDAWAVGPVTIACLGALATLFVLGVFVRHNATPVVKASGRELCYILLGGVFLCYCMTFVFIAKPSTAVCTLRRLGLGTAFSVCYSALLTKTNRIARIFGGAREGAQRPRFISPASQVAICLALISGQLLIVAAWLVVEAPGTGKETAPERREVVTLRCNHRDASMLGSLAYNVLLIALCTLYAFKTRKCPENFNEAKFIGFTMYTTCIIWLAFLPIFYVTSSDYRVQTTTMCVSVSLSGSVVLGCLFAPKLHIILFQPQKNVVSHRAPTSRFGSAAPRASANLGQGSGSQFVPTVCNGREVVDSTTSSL

Point of comparison: `CCCCOC(=Cn1cncn1)c1ccc(Br)cc1` [F, 1-[2-(4-Bromo-phenyl)-2-butoxy-vinyl]-1H-[1,2,4]triazole], Ki 0.66 µM. Against it:
- CC(C)OC(=Cn1cncn1)c1ccc(Cl)cc1Cl [A, 1-[2-(2,4-Dichloro-phenyl)-2-isopropoxy-vinyl]-1H-[1,2,4]triazole] — 1.8-fold higher, 1.17 µM
- CC(C)COC(=Cn1cncn1)c1ccc(Cl)cc1Cl [B, 1-[2-(2,4-Dichloro-phenyl)-2-isobutoxy-vinyl]-1H-[1,2,4]triazole] — within 1.5-fold, 0.64 µM
- CCCCOC(=Cn1cncn1)c1ccc(Cl)cc1Cl [C, 1-[-2-(2,4-Dichloro-phenyl)-2-butoxy-2-vinyl]-1H-[1,2,4]triazole] — 2.1-fold higher, 1.4 µM
- CC(C)OC(=Cn1cncn1)c1c(Cl)cc(Cl)cc1Cl [D, 1-[2-(2,4,6-Trichloro-phenyl)-2-isopropoxy-vinyl]-1H-[1,2,4]triazole] — 4.1-fold higher, 2.7 µM
- COC(=Cn1cncn1)c1ccc(Cl)cc1Cl [E, 1-[2-(2,4-Dichloro-phenyl)-2-methoxy-vinyl]-1H-[1,2,4]triazole] — 17-fold higher, 11 µM
